Results: article PMC6756013, “B591, a novel specific pan-PI3K inhibitor, preferentially targets cancer stem cells” (Oncogene, 2019)

Experiments:
MDA-MB-231 cells = experiment: Cell cycle analysis; type: cell-based, human; conditions: 24 h
Description: MDA-MB-231 cells were seeded in six-well plates at a density of 4×10^5 cells per well. The next day, cells were treated with B591 (0, 2.5, 5, 10 μM) for 24 h. Then the cells were trypsinized, centrifuged at 300 g for 5 minutes and fixed in 1 ml of 70 % cold ethanol. After incubation at -20℃ overnight, the cells were collected by centrifugation at 500 g for 5 min and pellets were resuspended in 500 μl PBS containing 300 μg/ml of RNase (Sigma, MO, USA). After incubation at 37 ℃ for 30 min, the pellets were stained with 100 μg/ml of propidium iodine (Sigma, MO, USA) for 20 min. Cell cycle distribution was determined by flow cytometry (FACScaliber, Becton Dickinson).

[1] = test system: MDA-MB-231 and SUM-159PT monolayer and mammosphere cells; experiment: Apoptosis of monolayer versus mammosphere cells (PE-Annexin V/7-AAD); type: cell-based, human; conditions: 48 h
Description: Cells were treated with indicated agents for 48 h, and cells were harvested and processed for apoptosis assay using the PE-Annexin V/7-AAD Apoptosis Detection Kit. d Representative flow cytometry plots of apoptosis inducing activity of B591 (10 μM) and paclitaxel (10 nM) on monolayer and mammosphere MDA-MB-231 cells. e B591 preferentially targeted CD44^high/CD24^low cells. Cells were treated with B591 or paclitaxel for 2 days. Following a 4-day recovery period, cells were co-stained with CD44 and CD24 antibodies and subjected to FACS analysis. Representative flow cytometry plots show the effect of B591 on CD44^high/CD24^low population in MDA-MB-231 cells in vitro. f B591 decreased mammosphere forming efficiency. Primary MDA-MB-231 mammospheres were treated with B591 or paclitaxel for 48 h. Results of the secondary mammosphere-formation assay are shown. Scale bar represents 40 μm. g B591 decreased the expression of CSC markers in MDA-MB-231 cells. Cells were treated with B591 or paclitaxel for 2 days. […] They label a gated population in plots with axes CD44 and CD24. / Panel E: DMSO is the vehicle control. Its printed value is included all the same.
Supplementary Fig. S10. B591 preferentially targets CSCs. […] Following a 4-day recovery period, the expression of CSC markers was analyzed with western blot analysis.

[2] = test system: CD44high/CD24low population in mammospheres from SUM-159PT cells; experiment: CSCs phenotype assay (CD44/CD24 flow cytometry); type: cell-based; conditions: 4 µM
Description: Cells were treated with B591 for 24 h, then the cell suspension was incubated with 20 μl of CD44-APC (#559942, BD Pharmingen, Franklin Lakes, NJ, USA) and 20 μl of CD24-PE (#555428, BD Pharmingen) antibodies for 30 min in dark at 4 ℃. Phenotype was detected by BD FACSCalibur, and data was analyzed with Flowjo. ALDH activity was analyzed with ALDEFLUOR Kit (STEMCELL Technologies, Vancouver, BC, Canada) according to the manufacture’s protocol.

[3] = test system: MDA-MB-231 orthotopic xenografts; experiment: MDA-MB-231 orthotopic xenograft; type: in vivo, NOD/SCID mice; conditions: for Decrease of tumor burden (determined by volume): versus vehicle
Description: Then we evaluated the inhibitory effect of B591 on CSCs by in vivo xenograft assay (Fig. 5a). B591 (4 or 16 mg/kg) was given to the NOD/SCID mice bearing orthotopic xenografts of human breast cancer MDA-MB-231 cells for 2 weeks. […] The inhibition of PI3K/mTOR pathway by B591 in tumors was further confirmed by western blot analysis.
In MDA-MB-231 xenografts experiment, 1 × 10^6 cells were incubated into the mammary fat pad of mice orthotopically. When the volume of tumor reached above 50 mm^3, the mice were randomly divided into three groups for introperitoneal (i.p.) injection with vehicle, 4 mg/kg and 16 mg/kg B591. The tumor volume and the body weight of mice were measured during the 2-weeks treatment. In the end of treatment, the mice were killed, and the tumor tissues were dissected and dissociated into single cell suspension with Dispase II (Roche, Basel, Switzerland) according with the manufacture’s protocol. Then these single cells were used for CSCs phenotype assay, ALDH activity assay, mammosphere formation assay and limiting dilution assay in vivo as described above.

SUM-159PT cells = experiment: Mammosphere formation after paclitaxel pre-treatment; type: cell-based; conditions: 8 nM Paclitaxel or 8 nM Paclitaxel plus 5 μM B591 for 24 h
Description: Fig. 6 B591 reduces breast tumor metastasis and recurrence. a Representative images show the effect of B591 (8 mg/kg) on lung metastasis of 4T1 cells, and data from six mice were plotted. b SUM-159PT cells were respectively treated with the indicated agents (8 nM Paclitaxel, 8 nM Paclitaxel plus 5 μM B591) for 24 h, the cells were then cultured for mammospheres. Representative images were shown, and data from two independent experiments were plotted. c–f SUM-159PT xenografts (n = 7) were treated with 4 mg/kg Paclitaxel, or 10 mg/kg B591, or both for 2 weeks, then ended the treatment and waited for tumor recurrence. Tumor volume (c) and body weight (d) were measured every 2 days after treatment, and tumors were photographed (e) and weighted (f) at the end of the experiment. ^*p < 0.05, ^**p < 0.01 versus indicated groups
Based on the finding that B591 preferentially targets CSCs, we supposed that by eliminating the breast CSCs, B591 might delay breast tumor recurrence after initial treatment with chemotherapy drugs. Paclitaxel is a first-line chemotherapeutic agent used for breast cancer therapy. SUM-159PT cells were pre-treated with paclitaxel, and then the cells remaining alive were cultured for mammospheres.

Cc1cc2c(cc1C)[n+](Cc1ccccc1Br)cn2Cc1ccc2c(c1)CCO2.[Br-] [B591, 3-(2-bromobenzyl)-1-((2,3-dihydrobenzofuran-5-yl)methyl) -5,6-dimethyl-1H-benzo[d]imidazol-3-ium bromide]
Cell cycle distribution (MDA-MB-231 cells): effectively arrested cells in G0/G1 phase | Apoptosis induction, mammosphere versus monolayer populations [1]: preferentially induced the apoptosis of mammosphere populations | Decrease of CD44high/CD24low population [2]: 82% | Decrease of tumor burden (determined by volume) ([3]; 4 mg/kg i.p., 2 weeks): 40% | Inhibition based on final tumor weights ([3]; 16 mg/kg i.p., 2 weeks): 70.7% | Decrease of tumor burden (determined by volume) ([3]; 16 mg/kg i.p., 2 weeks): 60% | Body weight ([3]; 4 or 16 mg/kg, 2 weeks): no significant body weight loss | CD44high/CD24low and ALDHhigh breast CSCs populations in xenograft tumors ([3]; tumors dissociated at end of treatment): significantly reduced | Formation of mammospheres / paclitaxel-enriched CSCs (SUM-159PT cells): the paclitaxel-enriched CSCs were effectively eliminated
